The values below come from US8304211B2, “Methods of screening molecular libraries and active molecules identified thereby” (priority 2002, dated 2012).

Data set [1] concerns the target T1, TrpR(T44M) (Escherichia coli, UniProt P0A881, T44M). The conditions noted are these: peptide expressed from pPep plasmid, arabinose induced. The protocol: (§1) A λRTLF culture containing pTrpRep(WT), pTrpRep(T44M), pTrprG85E, and pTrpRep(None) were transformed with one of pPep(MGFLR) or pPep(MGFWR), and grown in both BTTRG and BTTRA media to an OD of 0.6 at wavelength 600 at 30° C. with shaking. Two hundred microliters of cultures assayed for β-galactosidase levels at wavelength 405 nm as described in Fenton et al (1998) BBRC 242(1):71-78.
(§2) λRTLF cultures containing one of pTrpRep(WT), pTrpRep(T44M), pTrprG85E, or pTrpRep(None) were grown in BTTRG media supplemented with one of following synthesized peptides MGFLR, MGFWR, MGRRW, FLR, FWR at a concentration of 1 mM. The cultures were grown to an OD of 0.6 at wavelength 600 at 30° C. with shaking. Two hundred microlitres of cultures assayed for -galactosidase levels at wavelength 405 as described in Fenton et al (1998) supra.
The cultures were grown to an OD of 0.6 at wavelength 600 at 30° C. with shaking.

A further data set has as its target TrpR (G85E) (Escherichia coli, UniProt P0A881, G85E). As to conditions: peptide expressed from pPep plasmid. As for the experimental part: as §1, §2
Data set [2] relates to R273H/P309S p53 mutant in SW480.7 cells. Description: RT-PCR analysis of mRNA level of p53 transactivated genes. The format is cell-based, Homo sapiens (human). As to conditions: ligand transfected SW480.7 compared with empty pCEP4 transfected SW480.7, RT-PCR. The text has this:
Total RNA was collected, from two wells of one ligand transfected SW480.7 plate and one pCEP4 transfected SW480.7 plate each day on day 0, day 1, and day 2 after transfection. Thus RNA samples were harvested as SW480.7/Ligand-0 day, SW480.7/Ligand-1 day, SW480.7/Ligand-2 day, SW480.7/pCEP4-0 day, SW480.7/pCEP4-1 day, SW480.7/pCEP4-2 day. Protocol for total RNA extraction by TRIZOL® Reagent was according to that given by Life Technology:
First-Strand cDNA Synthesis • 1. For each RNA sample, combine the following reagents in a sterile 0.2-ml reaction tube:
• 2. Mix and spin the tube briefly. • 3. Incubate the tube at 70° C. in a thermal cycler for 2 min. • 4. Spin the tube briefly to collect contents at the bottom. Keep tube at room temperature. • 5. Add the following to each reaction tube:
• 6. Gently vortex and spin the tubes briefly. • 7. Incubate the tubes at 42° C. for 1 hr in an air incubator or cycler. • 8. Add 40 μl TE buffer (10 mM Tris (pH7.6), 1 mM EDTA) to dilute the first-strand reaction product. • 9. Heat tubes at 72° C. for 7 min to inactivate reverse transcriptase. • 10. Samples can be stored at −20° C. for up to three months. cDNA Amplification by PCR • 1. Preheat the PCR thermal cycler to 95° C. • 2. For each reaction, 5 μl of diluted first-strand cDNA and 5 μl of deionized water are added to a labeled 0.2-ml reaction tube. • 3. Prepare a master mix for all reaction tubes, plus one additional tube. For each reaction:
• 4. Mix by vortexing and spin the tube briefly. • 5. Aliquot 40 μl of the PCR Master Mix into each tube from Step 2. • 6. Cap the tube, and place it in the preheated thermal cycler. • 7. PCR was carried out using the following cycling parameters:
• 8. Electrophoreses 5 μl of each PCR reaction alongside 0.1 μg of 1-kb DNA ladder on a 1.2% agarose/EtBr gel in 1× TBE buffer. Results

The next data set deals with Saos-2 cells. Description: Validation of selected peptide ligand: cell proliferation/death after transfection. It counts as cell-based, Homo sapiens (human). The conditions noted are these: Saos-2 (p53 null), ligand expressed from pCEP4 plasmid, without puromycin selection. The protocol:
(§3) Cells SW480.7, U-2OS, and Sa-os2 were transfected with peptide ligand and pCEP4 parallelly using the calcium phosphate method.
(§4) After transfection, cells were cultured without drug selection and diluted at the ratio of 1:100 every five days. Cell proliferation status was closely observed until ligand transfected SW480.7 cells died out. Life staining with 0.4% trypan blue was applied to determine the death of the cells. Dead cells can not exclude the dye thus were stained blue. Living cells can pump the dye outside thus were not stained.

For a further data set, the system named is SW480.7 cells. The description is as above. The format is cell-based, Homo sapiens (human). As to conditions: SW480.7, ligand expressed from pCEP4 plasmid, 15 days without puromycin selection. As for the experimental part:
as §3, §4

The subject of a further data set is U2-OS cells. Described as above. The format is cell-based, Homo sapiens (human). As to conditions: U2-OS (wild type p53), ligand expressed from pCEP4 plasmid, without puromycin selection. As for the experimental part:
as §3, §4

Data set [3] has as its target T1, TrpR(T44M). As to conditions: arabinose induced expression, both in the presence and absence of tryptophan.
Description: RNA was electophoresed through a 1% formaldehyde gel according to Sambrooke et al's Manual (1989). The gel was capillary blotted onto nitrocellulose filter paper using the standard protocols. RNA was UV crosslinked by 45 seconds of UV exposure. The filter was prehydridised for 3 hours at 65 C and then hybridised for 36 hours at 65° C. Hybridisation buffers were in accordance with Sambrook. The filter was dried at room temperature and placed in a phosphoimager cassette overnight. The filter was then scanned by Molecular Dynamics phosphoimager 400e (880 E. Argues Ave, Sunnyvale Calif. 94086).
The test system of the next data set is normal human lymphocytes. As to conditions: 3.125-800 g/ml as printed, 2 days.
For the next data set, the system named is SW480 cells. Description: Dose response in SW480. The format is cell-based, human. As to conditions: 2 days. The protocol: 1. Dissolve the drug at a concentration of 10 mg/ml in PBS.
3. A confluent flask of SW480 cells was treated with trypsin and the cells were suspended in growth media at concentrations of 5×10^5 cells/ml.
5. Incubate at 37° C., 5% CO2 for 2 days.

Starred links: 1 amine or outer side, 2 acyl side, 3 side chain; linkers in the order of their positions; H or OH if unused. Residues, ends and D or L forms follow the SMILES beside them. Groups on a side chain read outwards from the residue. *: point of attachment. Pteroyl = Nc1nc2ncc(CNc3ccc(C(=O)*)cc3)nc2c(=O)[nH]1; γGlu = O=C(O)[C@H](CCC(=O)[*:2])N[*:1]

Description for normal human lymphocytes: Growth media used is the RPMI-1640 (Gibco Laboratories, Grand Island, N.Y.) supplemented with 25 mM Hepes buffer, 10% FBS serum (Gibco), 100 U/ml penicillin/streptomycin, 50 μg/ml gentamycin, 2 mM L-glutamin, 1× nonessential amino acids (Gibco)
In a 50-ml centrifugation tube, add 10 ml of Lymphoprep™. 2. Mix 15 ml blood and 15 ml HBSS-buffer (containing heparin). 3. Carefully add the blood mixture from step 2, to the tubes containing Lymphoprep™ without mixing the phases. 4. Centrifuge at 450 g at room temperature for 45 min. 5. Isolate the Buffy-coat layer containing the PBMC (peripheral blood mononuclear cells), and place in a fresh tube. 6. Add 7 ml HBSS-buffer to the tube to wash the PBMC. 7. Centrifuge 5-10 min 600 g. 8. Remove the supernatant and wash the PBMC again with a total of 10-ml HBSS-. 9. Suspend the cells in complete media RPMI 1640. Incubate the cells in a small culture flask for 1 hour at 37° C. 10. Remove the unattached cells (lymphocytes) from the small culture flask and dilute the cells to a concentration of 5×10^5 cell/ml. 11. Dissolve drug at 10 mg/ml in PBS. 12. Add 100 μl of growth media to the rest of the wells. 13. Prepare 100 l of a series of concentration of 1600, 800, 400, 200, 100, 50, 25, 12.5, 6.25 μg/ml were made. Triplicate wells were used for each concentration as well as the control (0.0 g/ml), for each of Drug1, 2 and 3. 14. […]

Take MGFWR: at TrpR(T44M) [1], the “Restoration of TrpR(T44M) function (β-galactosidase activity)” value was “restored TrpR(T44M) function”. Besides, the “Restoration of TrpR mutant G85E function (β-galactosidase activity)” value at TrpR (G85E) was “did not restore”.

With “MGWCT (peptide derivative) [Drug 3, Penta-peptide, no folate conjugation]”, in data set [2], the “mRNA level of 14-3-3σ” value is on record as “much higher”. Further, the “mRNA level of CD95” value in data set [2] is “much higher”. Moreover, in data set [2], the “mRNA level of p21 (WAF1/Cip1)” value is listed as “much higher”. Besides, the “Cell status after transfecting the ligand” value is “growing well” in the data set with Saos-2 cells; “could no longer attach to the wall and died” in the data set on SW480.7 cells; “growing well” with U2-OS cells.

Take MGFLR: the “Restoration of TrpR(T44M) function (β-galactosidase activity)” value on TrpR(T44M) [1] is on record as “restored TrpR(T44M) function”. Besides, at TrpR (G85E), the “Restoration of TrpR mutant G85E function (β-galactosidase activity)” value was “did not restore”. In addition, on TrpR(T44M) [3], the “Transcription of LacZ” value is “repressed” and the “Transcription of PheS” value is “repressed”.

Turning to `CSCC[C@H](N)C(=O)NCC(=O)N[C@@H](Cc1c[nH]c2ccccc12)C(=O)N[C@@H](CS)C(=O)N[C@H](C(=O)N[C@@H](CCCCNC(=O)CC[C@H](NC(=O)c1ccc(NCc2cnc3nc(N)[nH]c(=O)c3n2)cc1)C(=O)O)C(=O)O)[C@@H](C)O` [Drug 2, MGWCT-K-Folic] (H-MGWCTK([γGlu-Pteroyl])-OH; N-terminus and C-terminus assumed), the “Effect on normal human lymphocytes (number of surviving cells)” value in the data set with normal human lymphocytes is listed as “no effect”. Also, the “Activity on metastatic cancer cells SW480 (number of surviving cells)” value with SW480 cells (3.125-800 μg/ml) is listed as “best results”. Further, in the data set on SW480 cells (SW480 cells), the “IC50 as molar amount per well” value was found to be 0.0257 μmol/well.
